Key:
[1] = system: glyburide-induced hyperinsulinemic hypoglycemia; test: Glyburide-induced hyperinsulinemic hypoglycemia model in rats; format: in vivo, Sprague Dawley rats; settings: 30 mg/kg oral, adult male rats; mean baseline 168 mg/dL
Experimental: Sulfonylurea drugs, such as glyburide, inhibit KATP channels and can be used in rat preclinical models to mimic the disease state of congenital HI patients with KATP channel mutations.
This model of glyburide-induced hyperinsulinemic hypoglycemia was used to assess the pharmacodynamic effects of Compound 1 after a single administration in male and female adult rats and male neonatal rats.
Glyburide was administered to raise insulin levels and induce hypoglycemia in adult male Sprague Dawley rats.
Two hours following glyburide administration, Compound 1 was given by oral gavage and blood glucose was monitored over 5 hours.

[2] = fasting conditions; cited from earlier work
human pancreatic islets = test: Glucagon secretion in perifused human islets; format: cell-based; settings: islets from a healthy donor; G3+Arg
Experimental: For glucagon secretion, glucose (Boston BioProducts #BM-675) solutions, G3, G16.7 and G3 plus 20 mM arginine (Sigma #A8094; G3+Arg) were prepared in PB [24 mM NaHCO3 (Fisher Scientific #S233-500), 120 mM NaCl (Spectrum Chemical #S0155), 4.8 mM KCl (Fisher Scientific #P217-500), 2.5 mM CaCl2 (Fisher Scientific #C614-500), 1.2 mM MgCl2 (Sigma #M8266), 10 mM HEPES (Gibco #15630-080) and 0.1% BSA (EMD Millipore #12-675-100GM)]. Various concentrations of Compound 1 and diazoxide (Sigma #D9035) were prepared in G16.7 or in G3+Arg. On the day of the assay, ten perifusion chambers (Biorep #Peri-chamber) were loaded with a bead suspension (Biorep #Peri-beads-20) followed by 300 IEQ and another layer of bead suspension. Chambers were filled with PB, placed in the perifusion equipment and equilibrated with G3 for 74 min (flow rate=230 μL/min) followed by the perifusion steps for glucagon secretion shown in Table 3. […] Glucagon concentration was quantified using the commercially-available Mercodia Glucagon ELISA (Mercodia #10-1271-01) kit. undiluted perfusate samples were added to the supplied pre-coated assay plates. […] The optical density of each well was determined at 450 nm in a Tecan M1000Pro (Tecan, Switzerland) multiplate reader. Glucagon concentrations were calculated by regression to the standard curve using GraphPad Prism (GraphPad, San Diego, Calif.).

[3] = cited from earlier work

| Structure (SMILES) | Blood glucose level after glyburide [1] [mg/dL] | half-life [2] | Inhibition of arginine-stimulated glucagon secretion (human pancreatic islets) | Patients treated and considered responsive who continue to have hypoglycemia ([3]; 2020 Congenital HI International Global Registry report) [%] | Patients who experienced pulmonary hypertension ([3]; one study) [%] | Side effect: fluid retention ([3]; patients) | Side effect: gastrointestinal side effects including feeding aversion ([3]; patients) | Side effect: severe hypertrichosis ([3]; patients) |
| --- | --- | --- | --- | --- | --- | --- | --- | --- |
| COc1ccc(Cl)cc1C(=O)NCCc1ccc(S(=O)(=O)NC(=O)NC2CCCCC2)cc1 [glyburide, reference compound] | 70 | approximately 10 hours | – | – | – | – | – | – |
| CC1=NS(=O)(=O)c2cc(Cl)ccc2N1 [diazoxide] | – | – | up to 57% | 30 | 4.8 | approximately 30% | approximately 12% | approximately 52% |

Reference: patent US20220323427A1, “SOMATOSTATIN RECEPTOR TYPE 5 AGONIST FOR THE TREATMENT OF HYPERINSULINISM” (Crinetics Pharmaceuticals, Inc., priority 2021, published 2022)
